Measurements reported in US5356923A, “1-hydroxy-4(3-cyclopentyloxy-4-methoxyphenyl)-2-pyrrolidone and anti-hypertensive use thereof” (Orion-yhtyma Oy, priority 1990, dated 1994).

Assays:
PDE IV [1] = test: Inhibition of PDE IV; format: biochemical; settings: PDE isoenzymes isolated using DEAE-Sepharose chromatography
Procedure: (§1) PDE isoenzymes were isolated using DEAE-Sepharose chromatography as described by Reeves et al. in Biochem. J., 241 (1987), pp. 535-541. PDE IV and PDE III activities were determined by the method of Alajoutsijarvi and Nissinen as described in Anal. Biochem. 165 (1987), pp. 128-132.

PDE III [2] = target: T1, PDE III (Homo sapiens, UniProt Q14432); test: Inhibition of PDE III; format: biochemical; settings: PDE isoenzymes isolated using DEAE-Sepharose chromatography
T1 construct: PDE isoenzymes were isolated using DEAE-Sepharose chromatography; from tissue; the cited Reeves et al. 1987 used human and guinea-pig cardiac ventricle (own knowledge)
Procedure: as §1

[3] = test system: LTB4 synthesis in human basophilic leucocytes; test: Inhibition of arachidonic acid induced LTB4 synthesis; format: cell-based; settings: Leucocyte, HPLC, UV 271 nm
Procedure: (§2) The inhibition of arachidonic acid induced LTB4 and LTC4 synthesis in human basophilic leucocytes was determined with liquid chromatography and UV detection. LTB4 and LTC4 were separated first by HPLC with a Spherisorb ODS colon (5 μm, 150×4.6 mm) and Spectroflow 400 Kratos Analytical pump. The flow rate was 1 ml/min and the solvents were methanol/water/acetic acid […], pH 5.0 for LTB4 and methanol/water/acetic acid/phosphoric acid (65/35/0.07/0.03), pH 5.5 for LTC4. The peaks were analyzed further with Spektroflow 773 Kratos Analytical UV absorbance detector and leukotrienes were detected at the wavelength of 271 nm and 280 nm for LTB4 and LTC4, respectively.

[4] = test system: LTC4 synthesis in human basophilic leucocytes; test: Inhibition of arachidonic acid induced LTC4 synthesis; format: cell-based; settings: Leucocyte, HPLC, UV 280 nm
Procedure: as §2

PDE IV [5] = settings: prior art compound, no test shown; cited from earlier work
PDE III [6] = target: T1, PDE III; settings: prior art compound, no test shown; cited from earlier work

T1 sequence (Q14432 whole entry): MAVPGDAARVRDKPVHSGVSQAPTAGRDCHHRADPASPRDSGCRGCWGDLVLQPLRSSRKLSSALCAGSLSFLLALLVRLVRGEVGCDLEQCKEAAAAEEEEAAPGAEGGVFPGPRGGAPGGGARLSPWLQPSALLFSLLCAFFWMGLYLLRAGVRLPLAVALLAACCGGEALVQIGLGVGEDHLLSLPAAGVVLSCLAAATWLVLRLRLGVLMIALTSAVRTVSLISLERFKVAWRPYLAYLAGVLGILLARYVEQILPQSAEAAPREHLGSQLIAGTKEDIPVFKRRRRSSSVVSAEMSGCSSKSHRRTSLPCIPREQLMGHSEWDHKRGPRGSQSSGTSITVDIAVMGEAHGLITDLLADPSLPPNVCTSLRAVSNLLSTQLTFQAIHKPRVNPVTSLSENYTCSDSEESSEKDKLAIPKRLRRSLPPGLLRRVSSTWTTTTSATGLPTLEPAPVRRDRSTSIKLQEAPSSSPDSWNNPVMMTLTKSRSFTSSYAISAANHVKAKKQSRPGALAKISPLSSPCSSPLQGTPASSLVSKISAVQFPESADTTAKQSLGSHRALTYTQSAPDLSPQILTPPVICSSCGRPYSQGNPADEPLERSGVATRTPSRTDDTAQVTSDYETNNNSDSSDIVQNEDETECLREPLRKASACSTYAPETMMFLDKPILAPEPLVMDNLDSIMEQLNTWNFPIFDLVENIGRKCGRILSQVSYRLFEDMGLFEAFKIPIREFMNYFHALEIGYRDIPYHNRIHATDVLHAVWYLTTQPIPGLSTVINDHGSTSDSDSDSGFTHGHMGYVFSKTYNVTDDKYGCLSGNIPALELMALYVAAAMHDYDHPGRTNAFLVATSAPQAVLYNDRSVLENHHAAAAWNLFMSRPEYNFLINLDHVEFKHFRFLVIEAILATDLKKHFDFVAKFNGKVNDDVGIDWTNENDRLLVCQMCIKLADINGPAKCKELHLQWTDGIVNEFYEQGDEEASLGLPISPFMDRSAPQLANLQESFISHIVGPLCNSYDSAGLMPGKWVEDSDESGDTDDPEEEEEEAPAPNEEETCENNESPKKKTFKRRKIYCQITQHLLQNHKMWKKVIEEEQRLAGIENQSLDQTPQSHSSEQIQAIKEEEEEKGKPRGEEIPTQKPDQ

Row | IC50 (PDE IV [1]) [µM] | IC50 (PDE III [2]) [µM] | IC50 [3] [µM] | IC50 [4] [µM] | Structure (SMILES) | PDE IV selectivity (in words) (PDE IV [5]) | inhibition of PDE III (in words) (PDE III [6])
1 | 0.9 | 205 | 3.7 | 3.2 | COc1ccc(C2CC(=O)N(O)C2)cc1OC1CCCC1 (stereo not drawn) [Example 1, 1-Hydroxy-4-(3-cyclopentyloxy-4-methoxyphenyl)-2-pyrrolidone] | – | –
2 | – | – | – | – | COc1ccc(C2CNC(=O)C2)cc1OC1CCCC1 (stereo not drawn) [rolipram, 4-[3-(cyclopentyloxy)-4-methoxyphenyl]-2-pyrrolidone] | not selective PDE IV inhibitor | also inhibits PDE III
